Source: PubChem BioAssay (NCI)
“And” between values parts separate entries of the source, which are not always exact repeats. Equal values may be shown once.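 Each compound was tested at five concentrations against cells in 96-well plates for 48 hours. The concentration for 50% growth inhibition is given as GI50. TGI: total growth inhibition.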

Columns and labels:
Experiment in all cases: DTP human tumour cell line panel, 48 h
A549 NSCLC = tested on: A549 NSCLC
CCRF-CEM leukemia = tested on: CCRF-CEM leukemia
HS 578T breast = tested on: HS 578T breast
MALME-3M melanoma = tested on: MALME-3M melanoma
MCF7 breast = tested on: MCF7 breast
MDA-MB-435 = tested on: MDA-MB-435
NCI-H522 lung = tested on: NCI-H522 lung
NCI/ADR-RES ovarian = tested on: NCI/ADR-RES ovarian
OVCAR-5 ovarian = tested on: OVCAR-5 ovarian
OVCAR-8 ovarian = tested on: OVCAR-8 ovarian
PC-3 prostate = tested on: PC-3 prostate
SF-295 CNS = tested on: SF-295 CNS
SK-MEL-5 melanoma = tested on: SK-MEL-5 melanoma
SK-OV-3 ovarian = tested on: SK-OV-3 ovarian
SNB-19 CNS = tested on: SNB-19 CNS

SMILES	TGI (A549 NSCLC)	TGI (CCRF-CEM leukemia)	TGI (HS 578T breast)	TGI (MALME-3M melanoma) [µM]	TGI (MCF7 breast) [µM]	TGI (MDA-MB-435) [µM]	TGI (NCI-H522 lung) [µM]	TGI (NCI/ADR-RES ovarian) [µM]	TGI (OVCAR-5 ovarian)	TGI (OVCAR-8 ovarian) [µM]	TGI (PC-3 prostate) [µM]	TGI (SF-295 CNS) [µM]	TGI (SK-MEL-5 melanoma) [µM]	TGI (SK-OV-3 ovarian)	TGI (SNB-19 CNS)	GI50 (CCRF-CEM leukemia)	GI50 (NCI-H522 lung) [µM]	GI50 (SF-295 CNS) [µM]	GI50 (SK-OV-3 ovarian) [µM]	GI50 (SNB-19 CNS) [µM]
O=C1CSC(c2ccc([N+](=O)[O-])cc2)N1c1ccc(-c2ccc(-n3c(-c4ccccc4)nc4ccccc4c3=O)cc2)cc1 (stereo not drawn)	> 100 µM	> 100 µM	> 100 µM	> 100	> 100	> 100	> 100	> 100	> 100 µM	> 100	> 100	> 100	62	> 100 µM	> 100 µM	–	–	–	–	–
O=c1[nH]nc(Cc2ccccc2)n1/N=C/c1cccnc1	> 100 µM	> 100 µM	> 100 µM	> 100	> 100	> 100	> 100	> 100	> 100 µM	> 100	> 100	> 100	> 100	–	> 100 µM	–	–	–	–	–
Cc1cc(Nc2ccc(NS(C)(=O)=O)cc2)c2c(ccc3nccc32)[nH]1	> 100 µM	> 100 µM	> 100 µM	27.8	36.2	30.5	23.4	> 100	75.1 µM	> 100	39.7	60.5	29.1	–	48.8 µM	–	–	–	–	–
CCN(CC)CCn1c(=O)c2c(C)c3oc4ccccc4oc3c(C)c2c1=O	> 100 µM	> 100 µM	> 100 µM	> 100	> 100	> 100	> 100	> 100	> 100 µM	> 100	> 100	> 100	> 100	> 100 µM	> 100 µM	–	–	–	–	–
CCCCc1ccc(Nc2nc(Cl)c3ccn(C4CC(Oc5ccc(C)cc5)C(COc5ccc(C)cc5)O4)c3n2)cc1 (stereo not drawn)	> 46.4 µM	> 46.4 µM	> 100 µM	32.9	> 46.4	> 46.4	30.7	> 46.4	> 31.6 µM	> 46.4	> 100	> 46.4	> 46.4	> 46.4 µM	31.8 µM	–	–	–	–	–
CCCCc1ccc(Nc2nc(Cl)c3c(ncn3C3CC(Oc4ccc(C)cc4)C(COc4ccc(C)cc4)O3)n2)cc1 (stereo not drawn)	> 100 µM	> 100 µM	> 100 µM	> 100	> 100	> 100	> 100	> 100	> 100 µM	> 100	> 100	> 100	> 100	> 100 µM	> 100 µM	–	–	–	–	–
CCC(CC)(CO)CNc1cc(Cl)nc(N)n1	> 100 µM	> 100 µM	> 100 µM	> 100	> 100	> 100	> 100	> 100	> 100 µM	> 100	> 100	> 100	> 100	> 100 µM	–	–	–	–	–	–
CC1(C)C2CCC1C(=O)[C@@]1(C=CC(=O)CC1)C2 (stereo partly drawn)	> 100 µM	> 100 µM	> 100 µM	> 100	> 100	> 100	> 100	> 100	> 100 µM	> 100	> 100	> 100	> 100	> 100 µM	> 100 µM	–	–	–	–	–
COc1cc(Cc2cnc(N)nc2N)cc(OC)c1OCCCNc1ccc([N+](=O)[O-])cc1	35.2 µM	35.2 µM	> 100 µM	25.8	26.5	29.8	26.3	60	35.5 µM	30.1	22.3	–	18.9	66.6 µM	27 µM	–	–	–	–	–
COC(=O)c1c2c(cc3c1CC1(Cc4cc5c(c(C(C)=O)c4C1)CCCC5)C3)CCCC2 (stereo not drawn)	> 100 µM	88.1 µM	> 100 µM	> 100	> 100	> 100	> 100	> 100	> 100 µM	> 100	> 100	> 100	> 100	> 100 µM	–	–	–	–	–	–
Cc1cc(S(=O)(=O)Nc2nncn2-c2ccc(Cl)cc2)c(S)cc1Cl	> 10 µM	> 10 µM	> 10 µM	> 10	> 10	> 10	> 10	> 10	> 10 µM	> 10	> 10	> 10	> 10	> 10 µM	> 10 µM	–	–	–	–	–
O=C(c1cccs1)N1CCCN(C(=O)c2cccs2)C1=S	–	> 100 µM	> 100 µM	> 100	> 100	> 100	–	> 100	> 100 µM	> 100	> 100	> 100	> 100	> 100 µM	> 100 µM	–	–	–	–	–
O=[N+]([O-])c1cc(F)ccc1S(=O)(=O)c1ccccc1	> 10 µM	> 10 µM	> 10 µM	> 10	> 10	> 10	5.34	> 10	> 10 µM	> 10	> 10	> 10	> 10	> 10 µM	> 10 µM	–	–	–	–	–
O=[N+]([O-])c1cc2ccc(N(CCO)CCO)nc2nc1N(CCO)CCO	> 100 µM	> 100 µM	> 100 µM	> 100	> 100	> 100	> 100	> 100	> 100 µM	> 100	> 100	> 100	> 100	> 100 µM	> 100 µM	–	–	–	–	–
Cn1c2ccccc2c2cc(N3CCCC3)c3c(c21)C(=O)N(c1ccccc1)C3=O	> 100 µM	> 100 µM	> 100 µM	> 100	> 100	> 100	> 100	> 100	> 100 µM	> 100	> 100	> 100	> 100	> 100 µM	> 100 µM	–	–	–	–	–
Cc1c(C)c(C)c(-n2c(=O)n(C)c(=O)n2-c2cc(C(C)(C)C)cc(C(C)(C)C)c2O)c(C)c1C	17.3 µM	30.8 µM	31.9 µM	24.9	16.6	27.2	14.6	23.4	26.9 µM	22.7	12	21.2	18.5	25.2 µM	20.9 µM	–	–	–	–	–

SMILES	TGI (A549 NSCLC)	TGI (CCRF-CEM leukemia)	TGI (HS 578T breast)	TGI (MALME-3M melanoma) [µM]	TGI (MCF7 breast) [µM]	TGI (MDA-MB-435) [µM]	TGI (NCI-H522 lung) [µM]	TGI (NCI/ADR-RES ovarian) [µM]	TGI (OVCAR-5 ovarian)	TGI (OVCAR-8 ovarian) [µM]	TGI (PC-3 prostate) [µM]	TGI (SF-295 CNS) [µM]	TGI (SK-MEL-5 melanoma) [µM]	TGI (SK-OV-3 ovarian)	TGI (SNB-19 CNS)	GI50 (CCRF-CEM leukemia)	GI50 (NCI-H522 lung) [µM]	GI50 (SF-295 CNS) [µM]	GI50 (SK-OV-3 ovarian) [µM]	GI50 (SNB-19 CNS) [µM]
COc1cccc2cc(C(=O)Nc3ccccc3)c(=N)oc12	> 100 µM	> 100 µM	> 84.7 µM	> 100	> 100	> 100	> 100	> 100	> 100 µM	> 100	> 100	> 100	> 100	> 100 µM	> 100 µM	–	–	–	–	–
COC1=C(Cl)C(=O)c2c(O)ccc(O)c2C1=O	19.3 µM	0.213 µM	4.96 µM	1.1	3.29	3.13	0.564	2.32	7.49 µM	4.78	9.17	20.3	2.75	29.4 µM	17.1 µM	–	–	–	–	–
O=C(O)c1c2c(cc3c1CC1(Cc4cc5c(cc4C1=O)CCC5)C3)CCC2 (stereo not drawn)	> 100 µM	> 100 µM	> 100 µM	> 100	> 100	> 100	> 100	> 100	> 100 µM	> 100	> 100	> 100	> 100	> 100 µM	> 100 µM	–	–	–	–	–
C/C=C(\C)C(=O)O[C@@H]1CC(C)(C)CC2C3=CCC4[C@]56CC[C@](O)(OC5)C(C)(C)C6CC[C@@]4(C)C3(C)CC[C@]21C(=O)O (stereo partly drawn)	> 100 µM	> 100 µM	> 100 µM	> 100	> 100	> 100	> 100	> 100	> 100 µM	> 100	> 100	> 100	> 100	> 100 µM	> 100 µM	–	–	–	–	–
COC(=O)[C@]1(c2cc3ccccc3[nH]2)CC2CN(C(=O)OCc3ccccc3)C1CC2=O (stereo partly drawn)	91.5 µM	> 100 µM	62.4 µM	56.4	35.5	> 100	66.8	> 100	27.9 µM	> 100	39	> 100	34.5	> 100 µM	> 100 µM	–	–	–	–	–
CN(C)CCOc1ccc(-c2c(Oc3ccccc3)c(=O)oc3ccccc23)cc1	15.3 µM	4.94 µM	35.2 µM	25.8	17.5	21.2	24.1	25	29.2 µM	29.6	23.1	17.2	13.1	–	20.8 µM	–	–	–	–	–
O=c1[nH]c2nccn2c2c1SCCN2	> 100 µM	> 100 µM	> 100 µM	> 100	> 100	> 100	> 100	> 100	> 100 µM	> 100	> 100	> 100	> 100	–	> 100 µM	–	–	–	–	–
O=C(N/N=C\c1cccc2ccccc12)Nc1cccc2ccccc12	> 100 µM	> 100 µM	> 100 µM	> 100	> 100	24.3	> 100	> 100	> 100 µM	> 100	> 100	–	> 100	–	48.9 µM	–	–	–	–	–
COC(=O)c1ccccc1/C=C1\Cc2ccc3c(c2C1=O)CCCC3	> 100 µM	> 100 µM	> 100 µM	> 100	> 100	> 100	> 100	> 100	> 100 µM	> 100	> 100	> 100	–	> 100 µM	> 100 µM	–	–	–	–	–
O=C1CC(=O)NC(=NN2C(=O)CSC2C(=O)c2ccco2)N1 (stereo not drawn)	> 100 µM	> 100 µM	> 100 µM	> 100	> 100	> 100	> 100	> 100	> 100 µM	> 100	> 100	> 100	> 100	> 100 µM	–	–	–	–	–	–
Cc1nc2c(cc1OCc1ccccc1)C(=O)C1=C(C2=O)C2OC(=O)CC2OC1(C)C (stereo not drawn)	21.2 µM	0.451 µM	0.583 µM	2.25	0.339	1.8	0.387	28.9	2.16 µM	12.3	1.8	–	2.61	–	5.65 µM	–	–	–	–	–
Nc1ccc2ccc(N3CCNCC3)nc2n1	> 100 µM	> 100 µM	> 100 µM	> 100	> 100	> 100	> 100	> 100	> 100 µM	> 100	> 100	> 100	–	> 100 µM	> 100 µM	–	–	–	–	–
N#Cc1cc(Sc2ccc(N)c(C#N)c2)ccc1N	> 100 µM	41.3 µM	39.3 µM	36.4	> 100	12.6	–	35.3	> 100 µM	55.2	> 100	> 100	39	> 100 µM	> 100 µM	–	–	–	–	–
Cc1nc2ccc(F)cc2c(Cl)c1CCCl	> 100 µM	48.4 µM	> 100 µM	87.6	90.1	82.5	93.6	> 100	–	> 100	> 100	> 100	52.7	–	> 100 µM	–	–	–	–	–
COC(=O)CCNc1c2ccccc2nc2cccc([N+](=O)[O-])c12	0.132 µM and 0.726 µM	0.18 µM and 0.0689 µM	0.0128 µM and 0.0651 µM	0.00226	0.277	0.00104	0.00493	0.068	0.108 µM and 0.0278 µM	–	0.126	–	–	0.405 µM and 0.18 µM	0.217 µM and 0.0495 µM	0.00682 µM and 0.0157 µM	0.0016	0.00261	0.0405	0.00416
